The subject of this series is CCRIS mutagenicity, Ames/micronucleus/aberration tests. Kind of series: CCRIS mutagenicity studies.
The mark [1] stands for this setting: Test System: AMES SALMONELLA TYPHIMURIUM, Strain/Indicator: TA98, Metabolic Activation: NONE, Method: PREINCUBATION
The mark [2] stands for this setting: Test System: AMES SALMONELLA TYPHIMURIUM, Strain/Indicator: TA100, Metabolic Activation: NONE, Method: PREINCUBATION
Setting [3] is: Test System: AMES SALMONELLA TYPHIMURIUM, Strain/Indicator: TA1535, Metabolic Activation: NONE, Method: PREINCUBATION
[4] abbreviates: Test System: AMES SALMONELLA TYPHIMURIUM, Strain/Indicator: TA1537, Metabolic Activation: NONE, Method: PREINCUBATION
The mark [5] stands for this setting: Test System: AMES SALMONELLA TYPHIMURIUM, Strain/Indicator: TA98, Metabolic Activation: HAMSTER, LIVER, S-9, AROCLOR 1254 (10%), Method: PREINCUBATION
The mark [6] stands for this setting: Test System: AMES SALMONELLA TYPHIMURIUM, Strain/Indicator: TA100, Metabolic Activation: HAMSTER, LIVER, S-9, AROCLOR 1254 (10%), Method: PREINCUBATION
Setting [7] is: Test System: AMES SALMONELLA TYPHIMURIUM, Strain/Indicator: TA100, Metabolic Activation: RAT, LIVER, S-9, AROCLOR 1254 (10%), Method: PREINCUBATION
Setting [8] is: Test System: AMES SALMONELLA TYPHIMURIUM, Strain/Indicator: TA1535, Metabolic Activation: HAMSTER, LIVER, S-9, AROCLOR 1254 (10%), Method: PREINCUBATION
[9] abbreviates: Test System: AMES SALMONELLA TYPHIMURIUM, Strain/Indicator: TA1535, Metabolic Activation: RAT, LIVER, S-9, AROCLOR 1254 (10%), Method: PREINCUBATION
Where [10] appears, read: Test System: AMES SALMONELLA TYPHIMURIUM, Strain/Indicator: TA1537, Metabolic Activation: HAMSTER, LIVER, S-9, AROCLOR 1254 (10%), Method: PREINCUBATION
[11] abbreviates: Test System: AMES SALMONELLA TYPHIMURIUM, Strain/Indicator: TA1537, Metabolic Activation: RAT, LIVER, S-9, AROCLOR 1254 (10%), Method: PREINCUBATION
Setting [12] is: Test System: E.COLI, Strain/Indicator: WP2 UVRA, Metabolic Activation: NONE, Method: PREINCUBATION

The source made the active and inactive calls. No rule for the calls is given here.

As for `C1CN(SSN2CCOCC2)CCO1`, the mutagenic call is, setting by setting: under setting [1], “inactive; negative”; (Test System: AMES SALMONELLA TYPHIMURIUM, Strain/Indicator: TA98, Metabolic Activation: RAT LIVER S-9, PHENOBARBITAL AND BETA-NAPHTHOFLAVONE, Method: PREINCUBATION) “inactive; negative”; under setting [2], “inactive; negative”; (Test System: AMES SALMONELLA TYPHIMURIUM, Strain/Indicator: TA100, Metabolic Activation: RAT LIVER S-9, PHENOBARBITAL AND BETA-NAPHTHOFLAVONE, Method: PREINCUBATION) “inactive; negative”; under setting [3], “inactive; negative”; (Test System: AMES SALMONELLA TYPHIMURIUM, Strain/Indicator: TA1535, Metabolic Activation: RAT LIVER S-9, PHENOBARBITAL AND BETA-NAPHTHOFLAVONE, Method: PREINCUBATION) “inactive; negative”. The mutagenic call under setting [4] was “inactive; negative”; the mutagenic call (Test System: AMES SALMONELLA TYPHIMURIUM, Strain/Indicator: TA1537, Metabolic Activation: RAT LIVER S-9, PHENOBARBITAL AND BETA-NAPHTHOFLAVONE, Method: PREINCUBATION) is “inactive; negative”; the mutagenic call (Test System: AMES SALMONELLA TYPHIMURIUM, Strain/Indicator: TA1538, Metabolic Activation: NONE, Method: PREINCUBATION) was “inactive; negative”; the mutagenic call (Test System: AMES SALMONELLA TYPHIMURIUM, Strain/Indicator: TA1538, Metabolic Activation: RAT LIVER S-9, PHENOBARBITAL AND BETA-NAPHTHOFLAVONE, Method: PREINCUBATION) was “inactive; negative”; the mutagenic call (Test System: E.COLI, Strain/Indicator: WP2UVRA, Metabolic Activation: NONE, Method: PREINCUBATION) is “inactive; negative”; the mutagenic call (Test System: E.COLI, Strain/Indicator: WP2UVRA, Metabolic Activation: RAT LIVER S-9, PHENOBARBITAL AND BETA-NAPHTHOFLAVONE, Method: PREINCUBATION) was “inactive; negative”.
Regarding `CC(=O)NS(=O)(=O)c1ccc(N)cc1`, the mutagenic call runs as follows: (End Point: IN VITRO CHROMOSOMAL ABERRATIONS, Test System: CHINESE HAMSTER OVARY CELLS, Metabolic Activation: NONE) “inactive; negative”; (End Point: IN VITRO CHROMOSOMAL ABERRATIONS, Test System: CHINESE HAMSTER OVARY CELLS, Metabolic Activation: RAT, LIVER, S-9, AROCLOR 1254) “inactive; negative”; under setting [5], “inactive; negative”; under setting [1], “inactive; negative”; (Test System: AMES SALMONELLA TYPHIMURIUM, Strain/Indicator: TA98, Metabolic Activation: RAT, LIVER, S-9, AROCLOR 1254 (10%), Method: PREINCUBATION) “inactive; negative”; under setting [6], “inactive; negative”. Further, the mutagenic call under setting [2] is “inactive; negative”; the mutagenic call under setting [7] was “inactive; negative”; the mutagenic call under setting [8] was “inactive; negative”; the mutagenic call under setting [3] is “inactive; negative”; the mutagenic call under setting [9] is “inactive; negative”; the mutagenic call under setting [10] is “inactive; negative”. In addition, the mutagenic call was “inactive; negative” under setting [4] and “inactive; negative” under setting [11].
As to `O=C(Cl)c1ccc(Cl)cc1Cl`, the mutagenic call is “inactive; negative” under setting [1]; “active; positive” (Test System: AMES SALMONELLA TYPHIMURIUM, Strain/Indicator: TA98, Metabolic Activation: RAT LIVER S-9, PCB, Method: PREINCUBATION); “inactive; negative” under setting [2]; “active; positive” (Test System: AMES SALMONELLA TYPHIMURIUM, Strain/Indicator: TA100, Metabolic Activation: RAT LIVER S-9, PCB, Method: PREINCUBATION); “inactive; negative” (Test System: AMES SALMONELLA TYPHIMURIUM, Strain/Indicator: TA104, Metabolic Activation: NONE, Method: PREINCUBATION); “active; positive” (Test System: AMES SALMONELLA TYPHIMURIUM, Strain/Indicator: TA104, Metabolic Activation: RAT LIVER S-9, PCB, Method: PREINCUBATION). Also, the mutagenic call (Test System: Ames Salmonella typhimurium, Strain/Indicator: TA98, Metabolic Activation: None, Method: Preincubation) was “inactive; negative”; the mutagenic call (Test System: Ames Salmonella typhimurium, Strain/Indicator: TA98, Metabolic Activation: Rat, Liver, S9, Sodium phenobarbital and 5,6-benzoflavone, Method: Preincubation) was “inactive; negative”; the mutagenic call (Test System: Ames Salmonella typhimurium, Strain/Indicator: TA100, Metabolic Activation: None, Method: Preincubation) was “inactive; negative”; the mutagenic call (Test System: Ames Salmonella typhimurium, Strain/Indicator: TA100, Metabolic Activation: Rat, Liver, S9, Sodium phenobarbital and 5,6-benzoflavone, Method: Preincubation) was “inactive; negative”; the mutagenic call (Test System: Ames Salmonella typhimurium, Strain/Indicator: TA1535, Metabolic Activation: None, Method: Preincubation) is “inactive; negative”; the mutagenic call (Test System: Ames Salmonella typhimurium, Strain/Indicator: TA1535, Metabolic Activation: Rat, Liver, S9, Sodium phenobarbital and 5,6-benzoflavone, Method: Preincubation) was “inactive; negative”. Further, the mutagenic call was “inactive; negative” (Test System: Ames Salmonella typhimurium, Strain/Indicator: TA1537, Metabolic Activation: None, Method: Preincubation); “inactive; negative” (Test System: Ames Salmonella typhimurium, Strain/Indicator: TA1537, Metabolic Activation: Rat, Liver, S9, Sodium phenobarbital and 5,6-benzoflavone, Method: Preincubation); “inactive; negative” (Test System: E. coli, Strain/Indicator: WP2uvrA/pKM101, Metabolic Activation: None, Method: Preincubation); “inactive; negative” (Test System: E. coli, Strain/Indicator: WP2uvrA/pKM101, Metabolic Activation: Rat, Liver, S9, Sodium phenobarbital and 5,6-benzoflavone, Method: Preincubation); “inactive; negative” under setting [12]; “inactive; negative” (Test System: E.COLI, Strain/Indicator: WP2 UVRA, Metabolic Activation: RAT LIVER S-9, PCB, Method: PREINCUBATION).
Regarding `C[C@@H](O)[C@H]1C(=O)N2C(C(=O)O)=C([C@H]3CCCO3)S[C@H]12`, the mutagenic call is “inactive; negative” under setting [1]; “inactive; negative” (Test System: AMES SALMONELLA TYPHIMURIUM, Strain/Indicator: TA98, Metabolic Activation: S-9, Method: PREINCUBATION); “inactive; negative” under setting [2]; “inactive; negative” (Test System: AMES SALMONELLA TYPHIMURIUM, Strain/Indicator: TA100, Metabolic Activation: S-9, Method: PREINCUBATION); “inactive; negative” under setting [3]; “inactive; negative” (Test System: AMES SALMONELLA TYPHIMURIUM, Strain/Indicator: TA1535, Metabolic Activation: S-9, Method: PREINCUBATION). Besides, the mutagenic call reads like this: under setting [4], “inactive; negative”; (Test System: AMES SALMONELLA TYPHIMURIUM, Strain/Indicator: TA1537, Metabolic Activation: S-9, Method: PREINCUBATION) “inactive; negative”; under setting [12], “inactive; negative”; (Test System: E.COLI, Strain/Indicator: WP2 UVRA, Metabolic Activation: S-9, Method: PREINCUBATION) “inactive; negative”.
As to `OC/C(Br)=C(\Br)CO`, the mutagenic call under setting [5] is “active; positive”; the mutagenic call under setting [1] is “inactive; negative”; the mutagenic call (Test System: AMES SALMONELLA TYPHIMURIUM, Strain/Indicator: TA98, Metabolic Activation: RAT, LIVER, S-9, AROCLOR 1254, Method: PREINCUBATION) was “active; positive”; the mutagenic call under setting [6] is “active; positive”; the mutagenic call under setting [2] is “inactive; negative”; the mutagenic call under setting [7] is “active; positive”. Further, the mutagenic call reads like this: under setting [8], “active; positive”; under setting [3], “inactive; negative”; under setting [9], “active; positive”; under setting [10], “active; positive”; under setting [4], “inactive; negative”; under setting [11], “inactive; negative”.
Take `CC(C)(C)c1ccc(C(=O)ON(OCc2ccccc2)C(=O)c2ccccc2)cc1`: the mutagenic call (Test System: AMES SALMONELLA TYPHIMURIUM, Strain/Indicator: TA100, Metabolic Activation: NONE, Method: STANDARD PLATE) is “active; positive”.

The values are drawn from PubChem BioAssay AID1259407 (Chemical Carcinogenesis Research Information System (CCRIS), 2018).
